Test results: PMC8205226, “HIV-1 Integrase Inhibitors with Modifications That Affect Their Potencies against Drug Resistant Integrase Mutants” (ACS Infectious Diseases, 2021)
Like-named read-outs stand apart in the source and are kept apart here.

Tests used:
HIV-1 IN mutant Y143R [1] = assay: single-round infectivity assay, Y143R IN mutant; format: cell-based; details: for FC Y143R: fold change in EC50, IN mutant versus WT HIV-1
Protocol: (§1) Figure 2 Antiviral activities of the new compounds against RAL-resistant mutants. The EC50 values were determined using a vector that carries WT HIV-1 IN and the RAL-resistant mutants in a single round infection assay. […] Error bars represent the standard deviations of independent experiments, n = 4, performed in triplicate. The graph has a maximum value of 550 nM.
(§2) WT and mutant HIV-1 viral vectors were used in single-round infectivity assays to determine the antiviral potencies (EC50 values) of the compounds and the effects of the mutants on the EC50 values as previously described.[30],[54] Single round infectivity measurements were determined as done previously.[38]
(§3) The vector pNLNgoMIVR-ΔENV.LUC has been described previously.[26] To produce the new IN mutants used in this study, the IN open reading frame was removed from pNLNgoMIVR-ΔENV.LUC by digestion with KpnI and SalI, and the resulting fragment was inserted between the KpnI and SalI sites of pBluescript KS+. Using that construct as the wild-type template, we prepared the following HIV-1 IN mutants using the QuikChange II XL site directed mutagenesis kit (Agilent Technologies, Santa Clara, CA) protocol: N117A, N117H, P142A, P142H, P142S, Y143C, Y143H, S230R, R231G, and R231K. The following sense oligonucleotides were used with matching cognate antisense oligonucleotides (not shown) (Integrated DNA Technologies, Coralville, IA) in the mutagenesis: N117A, 5′-[…]-3′; N117H, 5′-[…]-3′; P142A, 5′-[…]-3′; P142H, 5′-[…]-3′; P142S, 5′-[…]-3′; Y143C, 5′- […]-3′; Y143H, 5′-[…]-3′; S230R, 5′- […]-3′; R231G, 5′-[…]-3′; R231K, 5′-[…]-3′.

HIV-1 IN mutant N155H [2] = assay: single-round infectivity assay, N155H IN mutant; format: cell-based; details: for FC N155H: fold change in EC50, IN mutant versus WT HIV-1
Protocol: as §1, §2, §3

[3] = test system: HIV-1 IN double mutant G140S/Q148H; assay: single-round infectivity assay, G140S/Q148H IN double mutant; format: cell-based; details: for FC G140S/Q148H: fold change in EC50, IN mutant versus WT HIV-1
Protocol: as §1, §2, §3

HIV-1 IN mutant N117A = assay: single-round infectivity assay, N117A IN mutant; format: cell-based; details: for EC50: Human immunodeficiency virus 1, read-out: EC50 values N117A; for FC N117A: fold change in EC50, IN mutant versus WT HIV-1
Protocol: (§4) The EC50 values were determined using a vector that carries the IN mutant in a single round infection assay. […] Error bars represent the standard deviations of independent experiments, n = 4, performed in triplicate.
as §2, §3

HIV-1 IN mutant N117H = assay: single-round infectivity assay, N117H IN mutant; format: cell-based; details: for EC50: Human immunodeficiency virus 1, read-out: EC50 values N117H; for FC N117H: fold change in EC50, IN mutant versus WT HIV-1
Protocol: as §4, §2, §3

HIV-1 IN mutant G118R [4] = assay: single-round infectivity assay, G118R IN mutant; format: cell-based
Protocol: as §4, §2, §3

HIV-1 IN mutant S119R = assay: single-round infectivity assay, S119R IN mutant; format: cell-based; details: for EC50: Human immunodeficiency virus 1, read-out: EC50 values S119R; for FC S119R: fold change in EC50, IN mutant versus WT HIV-1
Protocol: as §4, §2, §3

HIV-1 IN mutant Y143C = assay: single-round infectivity assay, Y143C IN mutant; format: cell-based; details: for FC Y143C: fold change in EC50, IN mutant versus WT HIV-1
Protocol: as §4, with “Figure 4 Mutations in the β5-α3 loop affect the antiviral potencies of the new compounds. The” for “The”
as §2, §3

HIV-1 IN mutant Y143H = assay: single-round infectivity assay, Y143H IN mutant; format: cell-based; details: for FC Y143H: fold change in EC50, IN mutant versus WT HIV-1
Protocol: as §4, with “Figure 4 Mutations in the β5-α3 loop affect the antiviral potencies of the new compounds. The” for “The”
as §2, §3

HIV-1 IN mutant P142A = assay: single-round infectivity assay, P142A IN mutant; format: cell-based; details: for EC50: Human immunodeficiency virus 1, read-out: EC50 values P142A; for FC P142A: fold change in EC50, IN mutant versus WT HIV-1
Protocol: as §4, with “Figure 4 Mutations in the β5-α3 loop affect the antiviral potencies of the new compounds. The” for “The”
as §2, §3

HIV-1 IN mutant P142H = assay: single-round infectivity assay, P142H IN mutant; format: cell-based; details: for EC50: Human immunodeficiency virus 1, read-out: EC50 values P142H
Protocol: as §4
Single round infectivity measurements were determined as done previously.[38]
as §3

HIV-1 IN mutant P142S = assay: single-round infectivity assay, P142S IN mutant; format: cell-based; details: for EC50: Human immunodeficiency virus 1, read-out: EC50 values P142S; for FC P142S: fold change in EC50, IN mutant versus WT HIV-1
Protocol: as §4, with “Figure 4 Mutations in the β5-α3 loop affect the antiviral potencies of the new compounds. The” for “The”
as §2, §3

HIV-1 IN mutant S230R = assay: single-round infectivity assay, S230R IN mutant; format: cell-based; details: for EC50: Human immunodeficiency virus 1, read-out: EC50 values S230R; for FC S230R: fold change in EC50, IN mutant versus WT HIV-1
Protocol: as §4, with “Figure 5 Antiviral potencies of the new compounds against IN with mutations in the […]. The” for “The”
as §2, §3

HIV-1 IN mutant R231G = assay: single-round infectivity assay, R231G IN mutant; format: cell-based; details: for EC50: Human immunodeficiency virus 1, read-out: EC50 values R231G; for FC R231G: fold change in EC50, IN mutant versus WT HIV-1
Protocol: as §4, with “Figure 5 Antiviral potencies of the new compounds against IN with mutations in the […]. The” for “The”
as §2, §3

HIV-1 IN mutant R231K = assay: single-round infectivity assay, R231K IN mutant; format: cell-based
Protocol: as §4, with “Figure 5 Antiviral potencies of the new compounds against IN with mutations in the […]. The” for “The”
as §2, §3

WT HIV-1 = details: vector carrying WT HIV-1 IN, single round infection; previously reported; cited from earlier work
HIV-1 IN mutant Y143R [5] = details: single round infection; previously reported; cited from earlier work
HIV-1 IN mutant N155H [6] = details: single round infection; previously reported; cited from earlier work
[7] = test system: HIV-1 IN double mutant G140S/Q148H; details: single round infection; previously reported; cited from earlier work
HIV-1 IN mutant G118R [8] = details: single round infection; previously shown; cited from earlier work
[9] = fold change in EC50, IN mutant versus WT HIV-1
[10] = Human immunodeficiency virus 1, read-out: EC50 values Y143H, single round infection, n = 4
[11] = read-out: EC50 values Y143H, single round infection, n = 4

Nc1c(C(=O)NCc2ccc(F)cc2F)c(=O)n(O)c2ncc(CCCCCCO)cc12 [4d]
ratio of the EC50s (our compound relative to DTG) against Y143R (HIV-1 IN mutant Y143R [1]; EC50 compound / EC50 DTG): 0.5
FC Y143R (HIV-1 IN mutant Y143R [1]): 0.9
ratio of the EC50s (our compound relative to DTG) against N155H (HIV-1 IN mutant N155H [2]; EC50 compound / EC50 DTG): 0.8
FC N155H (HIV-1 IN mutant N155H [2]): 1.2
ratio of the EC50s (our compound relative to DTG) against G140S/Q148H ([3]; EC50 compound / EC50 DTG): 1.6
FC G140S/Q148H [3]: 4.1
ratio of the EC50s (our compound relative to DTG) against N117A (HIV-1 IN mutant N117A; EC50 compound / EC50 DTG): 1.2
EC50 (HIV-1 IN mutant N117A): 0.6 nM
FC N117A (HIV-1 IN mutant N117A): 0.3
ratio of the EC50s (our compound relative to DTG) against N117H (HIV-1 IN mutant N117H; EC50 compound / EC50 DTG): 1.3
EC50 (HIV-1 IN mutant N117H): 3 nM
FC N117H (HIV-1 IN mutant N117H): 1.3
ratio of the EC50s (our compound relative to DTG) against G118R (HIV-1 IN mutant G118R [4]; EC50 compound / EC50 DTG): 0.5
FC G118R (HIV-1 IN mutant G118R [4]; [9]): 2.8
ratio of the EC50s (our compound relative to DTG) against S119R (HIV-1 IN mutant S119R; EC50 compound / EC50 DTG): 0.9
EC50 (HIV-1 IN mutant S119R): 2.1 ± 0.1 nM
FC S119R (HIV-1 IN mutant S119R): 0.9
ratio of the EC50s (our compound relative to DTG) against Y143C (HIV-1 IN mutant Y143C; EC50 compound / EC50 DTG): 0.9
FC Y143C (HIV-1 IN mutant Y143C): 0.5
ratio of the EC50s (our compound relative to DTG) against Y143H (HIV-1 IN mutant Y143H; EC50 compound / EC50 DTG): 0.8
EC50 (HIV-1 IN mutant Y143H; [10]): 1.5 ± 0.1 nM
FC Y143H (HIV-1 IN mutant Y143H): 0.7
EC50 (HIV-1 IN mutant Y143H; [11]): < 3 nM
ratio of the EC50s (our compound relative to DTG) against P142A (HIV-1 IN mutant P142A; EC50 compound / EC50 DTG): 0.8
EC50 (HIV-1 IN mutant P142A): 2.1 ± 0.3 nM
FC P142A (HIV-1 IN mutant P142A): 0.9
ratio of the EC50s (our compound relative to DTG) against P142H (HIV-1 IN mutant P142H; EC50 compound / EC50 DTG): 0.5
EC50 (HIV-1 IN mutant P142H): 1.5 ± 0.1 nM
FC P142H (HIV-1 IN mutant P142H; [9]): 0.7
ratio of the EC50s (our compound relative to DTG) against P142S (HIV-1 IN mutant P142S; EC50 compound / EC50 DTG): 0.5
EC50 (HIV-1 IN mutant P142S): 1.2 ± 0.2 nM
FC P142S (HIV-1 IN mutant P142S): 0.5
ratio of the EC50s (our compound relative to DTG) against S230R (HIV-1 IN mutant S230R; EC50 compound / EC50 DTG): 0.8
EC50 (HIV-1 IN mutant S230R): 3.8 ± 0.3 nM
FC S230R (HIV-1 IN mutant S230R): 1.7
ratio of the EC50s (our compound relative to DTG) against R231G (HIV-1 IN mutant R231G; EC50 compound / EC50 DTG): 0.9
EC50 (HIV-1 IN mutant R231G): 1.3 ± 0.2 nM
FC R231G (HIV-1 IN mutant R231G): 0.6
ratio of the EC50s (our compound relative to DTG) against R231K (HIV-1 IN mutant R231K; EC50 compound / EC50 DTG): 0.6
EC50 (WT HIV-1): 2.3 ± 0.6 nM
EC50 (HIV-1 IN mutant Y143R [5]): 2.1 ± 1.4 nM
EC50 (HIV-1 IN mutant N155H [6]): 2.7 ± 1 nM
EC50 [7]: 9.4 ± 3.6 nM
EC50 (HIV-1 IN mutant G118R [8]): 6.4 ± 2.5 nM

C[C@@H]1CCO[C@H]2Cn3cc(C(=O)NCc4ccc(F)cc4F)c(=O)c(O)c3C(=O)N12 [DTG, dolutegravir, reference compound]
FC Y143R (HIV-1 IN mutant Y143R [1]): 2.7
FC N155H (HIV-1 IN mutant N155H [2]): 2.3
FC G140S/Q148H [3]: 3.6
EC50 (HIV-1 IN mutant N117A): 0.5 nM
FC N117A (HIV-1 IN mutant N117A): 0.3
EC50 (HIV-1 IN mutant N117H): 2.4 nM
FC N117H (HIV-1 IN mutant N117H): 1.5
EC50 (HIV-1 IN mutant S119R): 2.3 ± 0.6 nM
FC S119R (HIV-1 IN mutant S119R): 1.4
FC Y143C (HIV-1 IN mutant Y143C): 0.9
EC50 (HIV-1 IN mutant Y143H; [10]): 2.2 ± 0.2 nM
FC Y143H (HIV-1 IN mutant Y143H): 1.4
EC50 (HIV-1 IN mutant Y143H; [11]): < 3 nM
EC50 (HIV-1 IN mutant P142A): 2.5 ± 0.5 nM
FC P142A (HIV-1 IN mutant P142A): 1.6
EC50 (HIV-1 IN mutant P142H): 2.8 ± 0.7 nM
EC50 (HIV-1 IN mutant P142S): 2.2 ± 0.1 nM
FC P142S (HIV-1 IN mutant P142S): 1.4
EC50 (HIV-1 IN mutant S230R): 4.6 ± 0.7 nM
FC S230R (HIV-1 IN mutant S230R): 2.9
EC50 (HIV-1 IN mutant R231G): 1.4 ± 0.2 nM
FC R231G (HIV-1 IN mutant R231G): 0.9
EC50 (HIV-1 IN mutant R231K; Human immunodeficiency virus 1, read-out: EC50 values R231K, single round infection, n = 4): 4.2 ± 0.2 nM
EC50 (HIV-1 IN mutant R231K; read-out: EC50 values R231K, single round infection, n = 4): < 5 nM
EC50 (WT HIV-1): 1.6 ± 0.9 nM
EC50 (HIV-1 IN mutant Y143R [5]): 4.3 ± 1.2 nM
EC50 (HIV-1 IN mutant N155H [6]): 3.6 ± 1.3 nM
EC50 [7]: 5.8 ± 0.5 nM
EC50 (HIV-1 IN mutant G118R [8]): 13 ± 5 nM
